{"source": "BindingDB's records for doi:10.1021/jm00021a021", "about": "(Tsukuba Research Institute, 1995)", "molecular_target": "T1, Endothelin-1 receptor (Sus scrofa, UniProt Q29010)", "T1 sequence (Q29010 whole entry)": "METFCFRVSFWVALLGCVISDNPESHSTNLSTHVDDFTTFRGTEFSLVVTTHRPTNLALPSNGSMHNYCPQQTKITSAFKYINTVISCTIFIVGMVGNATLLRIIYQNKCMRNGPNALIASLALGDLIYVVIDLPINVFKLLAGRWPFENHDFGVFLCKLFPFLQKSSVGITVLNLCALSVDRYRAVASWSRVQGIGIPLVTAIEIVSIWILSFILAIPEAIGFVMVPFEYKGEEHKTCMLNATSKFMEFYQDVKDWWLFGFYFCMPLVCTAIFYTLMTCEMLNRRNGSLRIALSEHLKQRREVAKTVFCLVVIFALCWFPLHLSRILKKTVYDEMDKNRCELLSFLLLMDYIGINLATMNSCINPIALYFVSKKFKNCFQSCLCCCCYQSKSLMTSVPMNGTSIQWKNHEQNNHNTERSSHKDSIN", "assay": "The compound was tested for binding inhibitory activity against Endothelin A receptor from porcine aortic smooth muscle membranes."}
{"smiles": "CC(C)C[C@@H]1NC(=O)[C@@H](CC(C)C)NC(=O)[C@H](C)NC(=O)[C@@H](CC(=O)O)NC(=O)[C@@H](Cc2c[nH]c3ccccc23)NC1=O", "values": [{"measurement": "IC50", "value": 440, "unit": "nM"}]}
